Source: the supplement of paper PMC7017272
± gives the standard deviation of the averaged measurements.

Tests used:
Details in all cases: treatment time: 3 days
UT-SCC-42B [1] = assay: drug sensitivity score (DSS); higher = more sensitive; extreme values may be limits of the assay
In short: (§1)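 HPV-negative HNSCC cell lines were seeded at 500 cells/well in 384-well plates on plastic, on Matrigel- or Myogel-coated wells (500 µg/mL), or embedded in Matrigel or Myogel plus rat collagen I. Compounds were given at five 10-fold concentrations for 3 days, and viability was read by CellTiter-Glo 2.0 luminescence. Signals were normalised to vehicle (0.1% DMSO) and cell-killing control wells. Percent-inhibition dose–response curves were fitted in the FIMM pipeline to derive IC50, maximal inhibition and drug sensitivity score.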

UT-SCC-106A = assay: as above
In short: as §1

UT-SCC-28 = assay: as above
In short: as §1

UT-SCC-8 = assay: as above
In short: as §1

UT-SCC-44 = assay: as above
In short: as §1

UT-SCC-40 = assay: as above
In short: as §1

UT-SCC-14 [2] = assay: as above
In short: as §1

UT-SCC-73 = assay: as above
In short: as §1

UT-SCC-42A = assay: as above
In short: as §1

UT-SCC-81 [3] = assay: as above
In short: as §1

UT-SCC-24B = assay: as above
In short: as §1

UT-SCC-24A [4] = assay: maximal % inhibition of viability relative to DMSO; higher = stronger effect
Description: (§2)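 HNSCC cell lines (500 cells/well, 384-well) were cultured on plastic, on top of (2D) or embedded (3D) in Matrigel or human leiomyoma matrix Myogel (500 ug/mL; Myogel 3D mixed with rat collagen I). Cells were treated for 3 days with 5 ten-fold concentrations of each drug, and viability was read by CellTiter-Glo. Viability was normalised to DMSO (0% inhibition) and 100 uM benzethonium chloride (100% inhibition) controls and fitted with the FIMM DSRT pipeline to give IC50 (nM), maximal % inhibition and the drug sensitivity score (DSS). Suffixes _1/_2/_3 on drug names are replicates.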

UT-SCC-24A [5] = assay: drug sensitivity score (DSS); higher = more sensitive
Description: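 HNSCC cell lines (500 cells/well, 384-well) were cultured on plastic, on top of (2D) or embedded (3D) in Matrigel or human leiomyoma matrix Myogel (500 ug/mL; Myogel 3D mixed with rat collagen I). Cells were treated for 3 days with 5 ten-fold concentrations of each drug, and viability was read by CellTiter-Glo. Suffixes _1/_2/_3 on drug names are replicates.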

UT-SCC-24A [6] = assay: relative IC50 (midpoint of the fitted curve; maximal inhibition may be below 50%); higher = less potent
Description: as §2

UT-SCC-42B [7] = assay: maximal % inhibition of viability relative to DMSO; higher = stronger effect
Description: as §2, with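 “DMSO” for “DMSO (0% inhibition)”, “and” for “and 100 uM”, “chloride” for “chloride (100% inhibition)”, “DSS.” for “the drug sensitivity score (DSS).”, “_1/_2/_3” for “_1/_2/_3 on drug names”, “replicates. Only inhibition-mode (IC50) fits are kept.” for “replicates.”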

UT-SCC-14 [8] = assay: as above
Description: as §2, with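 “DMSO” for “DMSO (0% inhibition)”, “and” for “and 100 uM”, “chloride” for “chloride (100% inhibition)”, “DSS.” for “the drug sensitivity score (DSS).”, “_1/_2/_3” for “_1/_2/_3 on drug names”, “replicates. Only inhibition-mode (IC50) fits are kept.” for “replicates.”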

UT-SCC-81 [9] = assay: as above
Description: as §2, with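 “DMSO” for “DMSO (0% inhibition)”, “and” for “and 100 uM”, “chloride” for “chloride (100% inhibition)”, “DSS.” for “the drug sensitivity score (DSS).”, “_1/_2/_3” for “_1/_2/_3 on drug names”, “replicates. Only inhibition-mode (IC50) fits are kept.” for “replicates.”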

[10] = culture condition: embedded in Matrigel
[11] = culture condition: on top of Matrigel
[12] = culture condition: on top of Myogel
[13] = culture condition: plastic 2D (no matrix)
[14] = culture condition: embedded in Myogel + collagen I

C#Cc1cccc(Nc2ncnc3cc(OCCOC)c(OCCOC)cc23)c1 [Erlotinib]
drug sensitivity score (UT-SCC-42B [1]; [10]): 2.4 ± 1.4 DSS | drug sensitivity score (UT-SCC-42B [1]; [11]): 1 ± 1.7 DSS | drug sensitivity score (UT-SCC-42B [1]; [12]): 0 DSS | drug sensitivity score (UT-SCC-42B [1]; [13]): 0 DSS | drug sensitivity score (UT-SCC-106A; [10]): 1.43 ± 0.8 DSS | drug sensitivity score (UT-SCC-106A; [14]): 0 DSS | drug sensitivity score (UT-SCC-106A; [11]): 1.53 ± 2.1 DSS | drug sensitivity score (UT-SCC-106A; [12]): 0 DSS | drug sensitivity score (UT-SCC-106A; [13]): 1.97 ± 1.7 DSS | drug sensitivity score (UT-SCC-28; [10]): 0 DSS | drug sensitivity score (UT-SCC-28; [14]): 1.27 ± 2.2 DSS | drug sensitivity score (UT-SCC-28; [11]): 0 DSS | drug sensitivity score (UT-SCC-28; [13]): 0 DSS | drug sensitivity score (UT-SCC-8; [10]): 7.57 ± 0.46 DSS | drug sensitivity score (UT-SCC-8; [14]): 0 DSS | drug sensitivity score (UT-SCC-8; [11]): 5.63 ± 0.65 DSS | drug sensitivity score (UT-SCC-8; [12]): 3.4 ± 2.5 DSS | drug sensitivity score (UT-SCC-8; [13]): 4.2 ± 1.1 DSS | drug sensitivity score (UT-SCC-44; [10]): 0 DSS | drug sensitivity score (UT-SCC-44; [14]): 0.133 ± 0.23 DSS | drug sensitivity score (UT-SCC-44; [11]): 0 DSS | drug sensitivity score (UT-SCC-44; [12]): 0.0667 ± 0.12 DSS | drug sensitivity score (UT-SCC-44; [13]): 0.0667 ± 0.12 DSS | drug sensitivity score (UT-SCC-40; [10]): 0.333 ± 0.31 DSS | drug sensitivity score (UT-SCC-40; [14]): 1.97 ± 3.4 DSS | drug sensitivity score (UT-SCC-40; [11]): 0 DSS | drug sensitivity score (UT-SCC-40; [12]): 0 DSS | drug sensitivity score (UT-SCC-40; [13]): 0.0333 ± 0.058 DSS | drug sensitivity score (UT-SCC-14 [2]; [10]): 1.73 ± 0.57 DSS | drug sensitivity score (UT-SCC-14 [2]; [14]): 0.0333 ± 0.058 DSS | drug sensitivity score (UT-SCC-14 [2]; [11]): 0.4 ± 0.69 DSS | drug sensitivity score (UT-SCC-14 [2]; [12]): 0.733 ± 1.3 DSS | drug sensitivity score (UT-SCC-14 [2]; [13]): 0.9 ± 1.6 DSS | drug sensitivity score (UT-SCC-73; [10]): 0.3 ± 0.3 DSS | drug sensitivity score (UT-SCC-73; [14]): 1.17 ± 2 DSS | drug sensitivity score (UT-SCC-73; [11]): 0 DSS | drug sensitivity score (UT-SCC-73; [12]): 0.233 ± 0.4 DSS | drug sensitivity score (UT-SCC-73; [13]): 0 DSS | drug sensitivity score (UT-SCC-42A; [10]): 1.47 ± 2 DSS | drug sensitivity score (UT-SCC-42A; [14]): 0 DSS | drug sensitivity score (UT-SCC-42A; [11]): 2.73 ± 2.8 DSS | drug sensitivity score (UT-SCC-42A; [12]): 0.1 ± 0.1 DSS | drug sensitivity score (UT-SCC-42A; [13]): 1.73 ± 1.5 DSS | drug sensitivity score (UT-SCC-81 [3]; [10]): 10.4 ± 3.8 DSS | drug sensitivity score (UT-SCC-81 [3]; [14]): 0 DSS | drug sensitivity score (UT-SCC-81 [3]; [11]): 5.17 ± 2.1 DSS | drug sensitivity score (UT-SCC-81 [3]; [12]): 0 DSS | drug sensitivity score (UT-SCC-81 [3]; [13]): 0.2 ± 0.27 DSS | drug sensitivity score (UT-SCC-24B; [10]): 11.3 ± 1 DSS | drug sensitivity score (UT-SCC-24B; [14]): 8.03 ± 3 DSS | drug sensitivity score (UT-SCC-24B; [11]): 10.4 ± 0.51 DSS | drug sensitivity score (UT-SCC-24B; [12]): 3.97 ± 0.21 DSS | drug sensitivity score (UT-SCC-24B; [13]): 15.2 ± 1.4 DSS | maximal % inhibition of viability (UT-SCC-24A [4]; [10]): 65.2 ± 8% | maximal % inhibition of viability (UT-SCC-24A [4]; [14]): 27.5 ± 6.3% | maximal % inhibition of viability (UT-SCC-24A [4]; [11]): 50.9 ± 7.2% | maximal % inhibition of viability (UT-SCC-24A [4]; [12]): 7.53 ± 1.6% | maximal % inhibition of viability (UT-SCC-24A [4]; [13]): 30.6 ± 5% | drug sensitivity score (UT-SCC-24A [5]; [10]): 8.87 ± 3.6 DSS | drug sensitivity score (UT-SCC-24A [5]; [14]): 1.63 ± 1 DSS | drug sensitivity score (UT-SCC-24A [5]; [11]): 5.7 ± 1.7 DSS | drug sensitivity score (UT-SCC-24A [5]; [12]): 0 DSS | drug sensitivity score (UT-SCC-24A [5]; [13]): 3.03 ± 0.93 DSS | relative IC50 (UT-SCC-24A [6]; [14]): 1560 nM | relative IC50 (UT-SCC-24A [6]; [11]): 860 nM | relative IC50 (UT-SCC-24A [6]; [12]): > 9890 nM | relative IC50 (UT-SCC-24A [6]; [13]): 855 nM | maximal % inhibition of viability (UT-SCC-42B [7]; [10]): 36.7 ± 12% | maximal % inhibition of viability (UT-SCC-42B [7]; [11]): 13.7 ± 13% | maximal % inhibition of viability (UT-SCC-42B [7]; [12]): 4.07 ± 4.7% | maximal % inhibition of viability (UT-SCC-42B [7]; [13]): 4.5 ± 0.98% | maximal % inhibition of viability (UT-SCC-14 [8]; [10]): 29.5 ± 7.8% | maximal % inhibition of viability (UT-SCC-14 [8]; [14]): 9.87 ± 4.7% | maximal % inhibition of viability (UT-SCC-14 [8]; [11]): 9.6 ± 10% | maximal % inhibition of viability (UT-SCC-14 [8]; [12]): 11.6 ± 10% | maximal % inhibition of viability (UT-SCC-14 [8]; [13]): 8.77 ± 15% | maximal % inhibition of viability (UT-SCC-81 [9]; [10]): 77.1 ± 4.2% | maximal % inhibition of viability (UT-SCC-81 [9]; [14]): 6.5 ± 5.1% | maximal % inhibition of viability (UT-SCC-81 [9]; [11]): 62 ± 6.1% | maximal % inhibition of viability (UT-SCC-81 [9]; [12]): 15.7 ± 4.9% | maximal % inhibition of viability (UT-SCC-81 [9]; [13]): 12.4 ± 3.9%
